Measured values as given in the supplement of paper PMC8882468.

Experiments:
Test in all cases: CTG-3D luminescence at 96 h relative to day-0 seeding control (ratio to day 0); higher = more growth / less cytotoxicity; PDxO 3D drug screen (set 2), 96 h, CTG-3D normalised to day-0 seeding control.
[1] = test system: HCI-003.E2 (organoid from an ER-positive breast cancer xenograft)
[2] = test system: HCI-010 (organoid from a breast cancer xenograft)
[3] = test system: HCI-027 (organoid from a triple-negative breast cancer xenograft)
[4] = test system: HCI-012 (organoid from a breast cancer xenograft)
[5] = test system: HCI-011.E2 (organoid from an ER-positive breast cancer xenograft)

CO[C@H]1C[C@@H]2CC[C@@H](C)[C@@](O)(O2)C(=O)C(=O)N2CCCC[C@H]2C(=O)O[C@H]([C@H](C)C[C@@H]2CC[C@@H](O)[C@H](OC)C2)CC(=O)[C@H](C)/C=C(\C)[C@@H](O)[C@@H](OC)C(=O)[C@H](C)C[C@H](C)/C=C/C=C/C=C/1C [rapamycin]
CTG-3D luminescence at 96 h
Settings	12.5 pM	0.00025 µM	0.005 µM	0.1 µM	1 µM	10 µM	100 µM	625 fM
[1]	1.08	1.04	0.947	0.798	1.03	0.994	0.0195	1.32
[5]	0.71	0.7694	0.724	0.909	0.688	1.05	0.0136	1.05

CTG-3D luminescence at 96 h
Settings	12.5 pM	0.00025 µM	0.005 µM	0.1 µM	1 µM	10 µM	100 µM	625 fM
[2], days in culture: 79	1.09	1.02	1.11	1.13	0.996	0.98	0.00731	1.13
[2], days in culture: 86	1.91	1.75	1.61	1.37	1.45	1.46	0.0226	2.35
[2], days in culture: 102	0.91	0.799	0.831	0.806	0.875	0.636	0.00488	0.865
[2], days in culture: 164	1.39	1.27	1.02	0.996	1.17	0.924	0.0097	1.26
[3], days in culture: 145	1.48	1.37	1.25	1.15	1.16	0.781	0.00647	1.5
[3], days in culture: 158	1.19	1.63	1.42	2.35	1.1	2.43	0.0139	4.51
[3], days in culture: 164	3.14	1.63	2.5	1.4	1.59	1.86	0.0163	1.82
[3], days in culture: 176	3.28	2.48	0.934	2.11	1.69	1.25	0.00482	2.21
[3], days in culture: 186	1.07	0.887	1.74	1.07	0.381	1.97	0.00722	0.992
[4], days in culture: 214	2.2	1.93	1.66	1.12	1.43	1.48	0.0123	1.33
[4], days in culture: 243	1.69	1.66	1.47	1.74	1.31	1.75	0.0176	1.93
[4], days in culture: 256	2.19	1.95	1.54	1.81	1.91	1.19	0.0101	2.38
[4], days in culture: 284	1.84	2.05	1.19	1.44	1.29	1.76	0.0121	3.62
[5], days in culture: 74	2.21	1.44	1.16	0.949	0.784	0.995	0.0116	2.1

CC(C)n1nc(-c2ccc3oc(N)nc3c2)c2c(N)ncnc21 [sapanisertib]
CTG-3D luminescence at 96 h
Settings	12.5 pM	0.00025 µM	0.005 µM	0.1 µM	1 µM	10 µM	100 µM	625 fM
[1]	2.44	2.37	2.1	0.144	0.0411	0.0196	0.00904	2.87
[5]	1.55	1.65	0.974	0.413	0.187	0.228	0.277	1.96

CTG-3D luminescence at 96 h
Settings	12.5 pM	0.00025 µM	0.005 µM	0.1 µM	1 µM	10 µM	100 µM	625 fM
[2], days in culture: 79	1.62	1.71	1.53	0.599	0.388	0.119	0.00579	1.95
[2], days in culture: 86	2.29	2.56	2.36	0.928	0.647	0.182	0.012	2.51
[2], days in culture: 102	1.31	1.4	1.07	0.401	0.241	0.0381	0.00408	1.02
[2], days in culture: 164	1.54	1.67	1.55	0.695	0.643	0.245	0.0314	1.37
[3], days in culture: 145	1.73	1.87	1.67	0.675	0.62	0.3	0.158	1.76
[3], days in culture: 158	1.38	2.26	2.09	1.46	0.941	0.992	0.124	3.36
[3], days in culture: 164	1.86	1.51	1.15	1.08	1.1	0.369	0.41	2.35
[3], days in culture: 176	3.48	2.27	1.45	1.22	0.927	0.364	0.195	2.69
[3], days in culture: 186	0.934	1.54	1.53	1.25	0.548	0.717	0.142	2.62
[4], days in culture: 214	3	1.84	1.05	1.27	0.635	0.331	0.0967	2.11
[4], days in culture: 243	1.95	2.36	1.77	1.16	0.476	0.522	0.156	3.05
[4], days in culture: 256	2.05	2.28	2.44	1.31	0.395	0.305	0.171	2.12
[4], days in culture: 284	1.65	2.83	1.59	1.13	0.451	0.248	0.147	3.7
[5], days in culture: 74	2.73	2.43	1.98	0.488	0.142	0.167	0.138	2.6
